Results from article PMC6270838, “Design and Synthesis of C-Terminal Modified Cyclic Peptides as VEGFR1 Antagonists” (Molecules, 2014).
Bridge positions count the residues as written; N and C are the ends. Peptide text beside a SMILES is read from it. * marks the point of attachment. X1 = COc1ccc2c(CN*)cc(=O)oc2c1

Experiments:
[1] = water solubility (qualitative); format: physicochemical; conditions: qualitative comparison between peptides
[2] = target: recombinant human VEGFR1 extracellular domains (ECD) (Homo sapiens, UniProt P17948); conditions: average of at least 3 tests each in triplicate
Description: Peptides VEGFR1 binding ability was determined by a competition ELISA test. Briefly, recombinant human VEGFR1 extracellular domains (ECD) were adsorbed on the surface of a 96-well microplate. After washing and BSA blocking, the plate was incubated with different compounds at 100 µM in competition with biotinylated VEGF (btVEGF). After additional washing steps, the remaining btVEGF was detected by chemiluminescence, via an HRP-conjugated streptavidin.
The 96-well plates were coated with humanized extracellular domains (ECD) of VEGFR-1 (R&D Systems, Abingdon, UK) in PBS (20 ng/well) overnight at 4 °C. On the following day, the plates were washed with 250 µL wash buffer (PBS containing 0.1% (v/v) Tween 20) three times and treated with blocking buffer (PBS containing 3% (w/v) BSA) at 37 °C for 2 h, followed by three washes with wash buffer. 50 µL of peptides solution at twice the desired final concentration (in PBS containing 2% DMSO) were added in triplicate wells and the plate was kept at 37 °C for 1 h. A solution of btVEGF-A165 (R & D Systems, Abingdon, UK) at twice the desired final concentration (typically 100 pM) in 50 µL PBS was added. After 2 h incubation, the plates were washed four times with wash buffer. 100 µL of Streptavidin‑Horseradish Peroxidase (Amersham, Pittsburgh, PA, USA) diluted 1:8000 w in PBS containing 0.1% (v/v) Tween 20 and 0.3% (w/v) BSA) were then added to each well to detect the btVEGF‑A165 bound to the ECD of VEGFR1. After 45 min incubation at 37 °C and in the dark, the plate was washed five times with wash buffer. A volume of 100 µL of SuperSignal West Pico Chemioluminescent Substrate (Pierce, Rockford, IL, USA) was added and the chemiluminescence was quantified with a Perkin Elmer Victor 2 spectrophotometer (Victor Wallac Multilabel reader). The percentages of displacement were calculated by the following formula: 100 × [1 − (S − NS)/(MS − NS)] where S is the signal measured, NS is the nonspecific binding signal defined as the signal measured in the absence of coated receptor on the microplate, and MS is the maximum binding signal obtained with (bt)-VEGF-A165 without competitor.

[3] = tested on: D2 domain of VEGFR1; conditions: shares with VEGF a common binding site on D2 (His223, Arg224); cited from earlier work
From the text: In the laboratory, a series of cyclic octapeptides has been developed.

Chain of recombinant human VEGFR1 extracellular domains (ECD) (P17948 27-758 limits assumed): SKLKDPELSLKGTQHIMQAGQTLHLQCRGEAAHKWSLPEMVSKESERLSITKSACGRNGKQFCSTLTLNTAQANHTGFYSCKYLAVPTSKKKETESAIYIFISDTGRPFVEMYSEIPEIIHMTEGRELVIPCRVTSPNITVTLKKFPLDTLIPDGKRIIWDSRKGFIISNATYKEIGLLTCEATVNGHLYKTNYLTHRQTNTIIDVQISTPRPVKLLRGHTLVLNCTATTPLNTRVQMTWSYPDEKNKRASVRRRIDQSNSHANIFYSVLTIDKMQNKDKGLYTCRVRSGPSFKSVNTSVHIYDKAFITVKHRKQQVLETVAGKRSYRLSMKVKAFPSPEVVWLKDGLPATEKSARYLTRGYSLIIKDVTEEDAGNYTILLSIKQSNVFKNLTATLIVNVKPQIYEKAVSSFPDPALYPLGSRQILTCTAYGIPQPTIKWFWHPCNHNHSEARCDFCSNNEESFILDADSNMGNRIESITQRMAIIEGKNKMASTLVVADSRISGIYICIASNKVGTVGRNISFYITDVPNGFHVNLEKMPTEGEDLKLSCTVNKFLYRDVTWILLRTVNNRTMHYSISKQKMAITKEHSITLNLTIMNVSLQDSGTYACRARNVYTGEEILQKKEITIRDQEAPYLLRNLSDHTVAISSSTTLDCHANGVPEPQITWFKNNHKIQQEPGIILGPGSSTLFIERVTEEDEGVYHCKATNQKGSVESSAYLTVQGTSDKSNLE

Row | Compound | water solubility [1] | Displacement (%) 30 µM ([2]; dose dependence, peptide 30 µM, NA means no activity) | Displacement (%) 50 µM ([2]; dose dependence, peptide 50 µM) | Displacement (%) 100 µM ([2]; dose dependence, peptide 100 µM) | Displacement 100 µM (%) ([2]; percentage of btVEGF displaced by peptide at 100 µM, btVEGF-A165 typically 100 pM, chemiluminescence, same btVEGF batch) | interaction with the D2 domain of VEGFR1 by NMR [3]
1 | COc1ccc2c(CNC(=O)[C@@H]3CCC(=O)N[C@@H](Cc4ccc(O)cc4)C(=O)N[C@@H](CCCCN)C(=O)N[C@@H](CC(=O)O)C(=O)N[C@@H](CCC(=O)O)C(=O)NCC(=O)N[C@@H](CC(C)C)C(=O)N[C@@H](CCC(=O)O)C(=O)N3)cc(=O)oc2c1 [Peptide 19] (YKDEGLEE-X1; lactam N-8) | slightly less water soluble than 15 and 16 | 11% | 41% | 68% | 68% | 
2 | c[YYDEGLEE]-NH2 (sidechain bridge or staple) [Peptide 1] |  |  |  |  |  | interacts
